Data: US20090305888A1, “Materials and Methods for Providing Oxygen to Improve Seed Germination and Plant Growth” (priority 2006, published 2009)
Read-outs that look alike come from different tables or passages of the source.

How the values were obtained:
[1] = Oxygen release from peroxides in water or nutrient solution and its adjustment; type: physicochemical; conditions: for oxygen level as nutrient strength increases: nutrient solution with or without companion cations, FIGS. 17 and 18; for increase of oxygen liberated per millimole of EDTA: slope of linear fit, FIG. 10
Procedure: One hundred milligrams of each of the above solid compositions comprising oxidizing agents was put in a 50 ml polypropylene tube, respectively, unless specialized. 50 ml de-ionized water or nutrient solution was put into the tubes. The strength of the nutrient solutions was 25%, 50%, 100%, 200% or 400% of Yan's formula (Yan, F. et al., “Adaptation of active proton pumping and plasmalemma ATPase activity of corn roots to low root medium pH,” Plant Physiology, 117:311-319 (1998)). The oxygen solutions were allowed to equilibrate over night before any measurements were made.
Oxygen contents in the solutions were determined with an oxygen electrode and ASET system (Applicable Electronics, Inc). Calibration was made by nitrogen aerating deionized water and air equilibrated deionized water. The deionized water consists of 0% oxygen level and the air equilibrated deionized water consists of 21% oxygen content. The temperature of the deionized water was measured and recorded for every measurement. The actual oxygen content in the deionized water at a specific temperature was derived from a handbook of chemistry (David R. Lide, Handbook of Chemistry and Physics, 79th Edition, 1998-1999, pp. 8-87). A regressive equation was formed based on data from calibration calculations and the handbook. All of the observed values were changed into oxygen contents in micromoles through the regressive equation.
Different levels of companion cations of peroxides or chelate were added to the sample solutions. For example, EDTA was added to the 50 ml tubes with peroxide solutions. The peroxide solutions were made in both deionized water and nutrient solutions. After equilibrating overnight, the oxygen contents of the adjusted solutions were analyzed.

ADH of corn roots = experiment: ADH activity of roots of flooded corn plants (FIG. 23); type: in vivo; conditions: flooded for 3 days
Bald cypress seedlings = experiment: Flooding and salinity of Bald cypress seedlings; type: in vivo; conditions: 8 ppt salinity
Source text: Bald cypress is a plant of great ecological and economic significance in Florida. However, these tough, tolerant, inexpensive and somewhat idiosyncratic trees are at the heart of a fast-disappearing ecosystem. Flooding and salinity caused by hurricanes have accelerated the disappearance of the species. Five basins were set up to mimic flooding basins to study the effects of a solid composition of the invention on alleviating the impact of flooding and salinity on Bald cypress seedlings. These basins were established by using plastic swimming pools with 185×152×23 cm plastic tubs for the combined treatment of flooding and salinity to bald cypress seedlings.
Five levels of salinity were presented: 0, 2, 4, 6 and 8 ppt in sodium chloride. Three flooding levels were presented: 0%, 50% and 100% root submergence. 0% flooding level consisted of 100% of the pots being above the water surface; 50% flooding level consisted of 50% of the height of the pots being submerged; and 100% flooding level consisted of 100% of the height of the pots being submerged.
Two oxygen bioavailable levels were provided for those seedlings that were fully flooded with 8 ppt salinity: (1) with composition comprising oxidizing agent or (2) without composition comprising oxidizing agent in the potted soil. […] Survival rates of the potted seedlings were observed and calculated for each of the treatments.

[2] = Solubility product (Ksp) of the peroxides; type: physicochemical
ADH of corn seedlings [3] = experiment: ADH activity of flooded corn seedlings grown in soil in pots with oxygen fertilizers (FIG. 28); type: in vivo
Procedure: ADH and NR were extracted in the same extraction buffer including 50 mM Tris-HCl (pH 8.0), 1 mM EDTA, 12 μM mercaptoethanol, and 0.05 mg DTT/ml. Frozen root tissues were ground rapidly in a chilled mortar and pestle with the above chilled extraction buffer. The homogenate was centrifuged at 15 000 g at 4° C. for 15 minutes. One hundred μl of supernatant was added to 800 μl of reaction solution containing 50 mM Tris-HCl buffer at pH 9.0, 1 mM EDTA, and 1 mM NAD. The assay uses 15% (v/v) ethanol as the substrate and measures the production of NADH. Measurement of NADH formation was performed in a spectrophotometer (DU 64, Beckman Instruments, Fullerton, Calif.) for 60 seconds at 340 nm. A unit of ADH is defined as the production of 1 nmol of NADH min^−1 mg^−1 protein.

[4] = test system: Alcohol dehydrogenase (ADH) of corn embryos; conditions: 3/2000 hydrogen peroxide, embryos facing downward, 48 hours after germination at 25° C., FIG. 4
Procedure: Alcohol dehydrogenase (“ADH”) activities of corn embryos placed in environments with different concentrations of bioavailable oxygen at 48 hours after germination at 25° C. were observed. Before germination, corn seeds were soaked in 0.5 mM CaSO4 solution, in aeroponics, or in 3/2000 H2O2 for 24 hours. All of the embryos were exposed to air except for one sample group treated with water, which was placed into soil.
Following treatment, each corn seed was cut into two halves on the embryo. Four halves of embryos were homogenized in extraction buffer including 50 mM Tris-HCl (pH 8.0), 1 mM EDTA, 0.5 mg/ml DTT, and 12 μM mercaptoethanol. The suspension solution of the enzyme was centrifuged twice at 15000 rpm for 5 min in order to separate oil (on the top) from pellets (at the bottom). The supernatant from the second centrifuge was used to measure ADH activity.
100 μl of the enzyme solution and 900 μl of reaction solution that included 50 mM Tris-HCl (pH 9.0), 1 mM EDTA, and 1 mM NAD were incubated in 1.5 ml Eppendorf tubes in a water bath at 30° C. for 3 min. Then, 100 μl 15% ethanol and the reaction solution were added directly to cuvette. Reaction time was 1 min. in the cuvette at 340 nm. The assay uses ethanol as the substrate and measures the production of NADH. […] The relative ADH activity was calculated based on taking the ADH activity of corn seeds germinated in aeroponics as 100%.

corn seeds [5] = conditions: for germination rate: FIG. 2
Procedure: Corn seeds of FR27 x FRM017 (GRADE: 24RD) were provided by Illinois Foundation Seeds Inc. Two sets of seeds were used: one set of seeds consisted of fresh seeds and the other set of seeds consisted of seeds that were […].
H2O2 methods: 30 seeds and 50 ml 0.5 mM Ca (as CaSO4) with 3/5000, 3/4000, 3/3000, 3/2000, 3/1000 or 3/100 H2O2, separately, were placed into 9 cm dishes. The seeds were soaked in these solutions for 24 hours and then put on and covered by wet napkins. The napkins were wetted in the soaking solutions, respectively.

[6] = test system: corn seed embryos or endosperms; conditions: 3/2000 hydrogen peroxide for one day, medium 100 μM CaCl2, FIG. 5
Procedure: 1.5 mm borosilicate glass capillaries (cat no. TW150-4) that were 10 cm in length were pulled into two micropipettes through a Sutter P-97 at 545° C. The freshly pulled micropipettes were silanized at 200° C. with N,N-Dimethyltrimethylslylamine according to Smith's method (Smith, P J S et al., “Self-referencing, non-invasive, ion selective electrode for single cell direction of trans-plasma membrane,” Microscopy Research and Technique, 46:398-417 (1999)).
Micropipettes were backfilled with H^+ probe backfilling solution of 50 mM KCl and 50 mM HK2PO4.
45 g of Sylgard 184 silicone elastomer and 5 g of Sylgard 184 curing agent (Dow Corporation, USA) were poured into the bottom of a 10 cm Pyrex dish in order to provide a medium for stabilizing the tested treated seeds. One seed was appropriately stabilized in the center of the Pyrex dish with 4 to 5 stainless-steel needles.
Microelectrodes were calibrated before and after each experiment. Calibrations were performed at standard pH 6, 7, and 8 solutions (Fisher Scientific) at 25° C. The Nernst Slopes (in mV decade^−1) were equal or close to 59. Following calibration, the microelectrode was positioned on both the embryos and endosperm of the targeted seed. Then, the embryo and endosperm were, respectively, scanned 100 μm by 100 μm. At least 10 scans were done on either embryo or endosperm.

corn seeds [7] = conditions: 3/2000 hydrogen peroxide for one day, embryos or endosperm, FIG. 6
Procedure: The tested seeds were stabilized as described above. The seed samples were soaked in 0.5 mM CaSO4 solution with or without 3/2000 hydrogen peroxide for one day before any measurements were made. Pt/Ir oxygen electrodes were used. The microelectrodes were calibrated before and after each experiment. Calibrations were performed in deionized water saturated with air (which includes 21% oxygen concentration) and then bubbled with nitrogen gas for at least 30 min (so as to provide 0% oxygen concentration). Ten scans were done on either embryos or endosperms.

ADH of corn seedlings [8] = conditions: nutrient solution of 2 mM hydrogen peroxide, FIG. 26
Procedure: The enzyme assay was performed according to the procedures described by Chung and Ferl (“Arabidopsis Alcohol Dehydrogenase Expression in Both Shoots and Roots Is Conditioned by Root Growth Environment,” Plant Physiol, 121:429-436 (1999)) and modified slightly. ADH and NR were extracted in the same extraction buffer including 50 mM Tris-HCl (pH 8.0), 1 mM EDTA, 12 μM mercaptoethanol, and 0.05 mg DTT/ml. Frozen root tissues were ground rapidly in a chilled mortar and pestle with the above chilled extraction buffer. The homogenate was centrifuged at 15 000 g at 4° C. for 15 minutes. One hundred μl of supernatant was added to 800 μl of reaction solution containing 50 mM Tris-HCl buffer at pH 9.0, 1 mM EDTA, and 1 mM NAD. The assay uses 15% (v/v) ethanol as the substrate and measures the production of NADH. Measurement of NADH formation was performed in a spectrophotometer (DU 64, Beckman Instruments, Fullerton, Calif.) for 60 seconds at 340 nm. A unit of ADH is defined as the production of 1 nmol of NADH min^−1 mg^−1 protein.

corn root = conditions: nutrient solution with 1 mM H2O2 for two days, air bubbling (normoxia), FIG. 31
Procedure: Each of the untreated 1.5 mm borosilicate glass capillaries (cat no. TW150-4) of 10 cm length was pulled into two micropipettes through a Sutter P-97 at 545° C. The freshly pulled micropipettes were silanized at 200° C. with N,N-Dimethyltrimethylslylamine according to Smith's method (Smith, P J S et al., “Self-referencing, non-invasive, ion selective electrode for single cell direction of trans-plasma membrane,” Microscopy Research and Technique, 46:398-417 (1999)).
The micropipettes were backfilled with a H^+ probe backfilling solution of 50 mM KCl and 50 mM HK2PO4.
A rubber groove of 20 cm in length, 5 cm in width, and 1 cm in height was connected to the pot with 1800 ml nutrient solution via a peristaltic pump (Model: 77120-62, 12 VDC 1 AMP, Mfg by Barnant Company) and non-permeable oxygen tubing. One radicle root was appropriately stabilized in the groove with 4 to 5 Minucie stainless-steel needles. Microelectrodes were calibrated before and after each experiment. Calibrations were done in standard pH 6, 7, and 8 solutions (Fisher Scientific) at 25° C. […] Following calibration, the microelectrode was positioned on the targeted radicle root. The scanning started from the root tip and the root was scanned 100 μm by 100 μm near the root tip. Then the scanning intervals were adjusted gradually from 200 μm to 1000 μm or even longer. About 20000 μm along the root was scanned. […]

[9] = test system: nitrate reductase (NR) of corn seedlings; conditions: nutrient solution of 2 mM hydrogen peroxide, FIG. 27
Procedure: NR assays were performed essentially as described by the protocol of Datta and Sharma (Rupali Datta and Rameshwar Sharma, “Temporal and spatial regulation of nitrate reductase and nitrite reductase in green maize leaves,” Plant Science, 144:77-83 (1999)). NR activity was measured immediately. 200 μl of supernatant was added to 800 μl of reaction solution consisting of 50 mM Tris-HCl buffer (pH 8.0), 1 mM EDTA, 100 μM NADH, 10 mM KNO3 and 1 μM Na2MoO4 in a 2 ml eppendorf tube. The reaction was performed in a water bath of 30° C. and terminated after 60 min by adding 500 μl of an equal volume of sulfanilamide (1% [w/v] in 3 n HCl) and naphthylethylene-diamine dihydrochloride (0.05% [w/v]) to the reaction mixture. The samples were colorimetrically measured at 540 nm. One unit of NR activity was defined as the amount required to produce 1 nmol of nitrite min^−1 mg^−1 protein.

[10] = cited from earlier work

[Ca+2].[O-][O-] [calcium peroxide]
oxygen released into water ([1]; 500 mg solid composition in 50 ml deionized water, FIG. 9): released more oxygen than magnesium peroxide
oxygen level as nutrient strength increases [1]: increases when the nutrient strength increases
increase of oxygen liberated per millimole of EDTA [1]: about 19 micromoles
ADH level compared with control (ADH of corn roots; 18 g per pot): almost as good as the control
ADH activity in roots as more solid composition was used (ADH of corn roots): the less ADH activity observed in the tested roots
death of seedlings (Bald cypress seedlings; 100% flooding): No seedlings died
growth of seedlings (Bald cypress seedlings; 100% roots submerged for four days, 20 g per pot, FIG. 32): could grow
Ksp relative to magnesium peroxide [2]: about 3000 times
effect on ADH of seedlings suffering from flooding (ADH of corn seedlings [3]): greatly lowered the ADH of the seedlings suffering from flooding

OO [hydrogen peroxide]
diminished ADH activity [4]: about 40%
root lengths (corn seeds [5]; 3/100 H2O2, third day after germination): 6.8±1.7 mm
germination rates among varying concentrations of H2O2 (corn seeds [5]; 3/2000 H2O2, FIG. 1): the best germination rates
germination at 24 hours (corn seeds [5]; 3/2000 H2O2, FIG. 3): all of the seeds were able to germinate at 24 hours
germination rate (corn seeds [5]; 3/2000 H2O2, new seeds): 95.6%
germination rate (corn seeds [5]; 3/2000 H2O2, old seeds): 94.4%
root lengths (corn seeds [5]; 3/2000 H2O2, third day after germination): 34.8±1.7 mm
germination rates of corn seeds compared with non-hydrogen peroxide exposure (corn seeds [5]; H2O2 3/5000 to 3/100, 48 hours after germination, FIG. 1): significantly better germination rates than non-hydrogen peroxide exposure
proton flux direction [6]: proton efflux occurs heavily
oxygen consumption rate relative to without hydrogen peroxide (corn seeds [7]): about two
ADH level compared with control (ADH of corn seedlings [8]): slightly higher that that of the control
ADH level compared with hypoxic seedlings (ADH of corn seedlings [8]): greatly lower than those of hypoxic seedlings
protons excreted by roots relative to hypoxia or anoxia (corn root): seven to ten
NR level compared with hypoxic seedlings [9]: greatly lower than those of hypoxic seedlings

[Mg+2].[O-][O-] [magnesium peroxide]
oxygen level as nutrient strength increases [1]: very smooth when the nutrient strength increases
increase of oxygen liberated per millimole of EDTA [1]: about 14 micromoles
ADH activity in roots as more solid composition was used (ADH of corn roots): the less ADH activity observed in the tested roots
oxygen released by zero order constant release ([10]; after the first six days): 90%
oxygen released by first order release ([10]; first six days): 10%
effect on ADH of seedlings suffering from flooding (ADH of corn seedlings [3]): greatly lowered the ADH of the seedlings suffering from flooding

O=C([O-])[O-].O=C([O-])[O-].OO.OO.OO.[Na+].[Na+].[Na+].[Na+] [sodium percarbonate]
ADH level compared with flooded treatment (ADH of corn roots; 5 g): almost as bad as the flooded treatment without the supply of solid compositions
ADH activity in roots as more solid composition was used (ADH of corn roots): the less ADH activity observed in the tested roots
